These results are taken from patent US6468729B2, “Silver halide photographic light-sensitive material” (Fuji Photo Film Co., Ltd., priority 2000, dated 2002).

This data set is described as follows: pKa measurement by titration (AT-210 device, neutralization middle point). The data set is classed as physicochemical. As to conditions: —NHSO2— dissociation group, 25° C., THF/H2O=6/4. How it is done:
The measurement of the pKa value in the present invention will be described below. […] 20 mL of H2O were then added to completely dissolve the material. Subsequently, 0.25 mL of an aqueous 0.2 N hydrochloric acid solution was added, and the resultant solution was stirred. An aqueous 0.2 N NaOH solution was dropped into this solution, and the pKa value was obtained from the neutralization middle point. All pKa values in the present invention were obtained under the above measurement conditions.
`CCCCCCCCCCCCCCCC(C(=O)O)C(=O)Nc1cccc(C(=O)Nc2ccc(CCCc3n[nH]c4cc(C(C)(C)C)nn34)cc2)c1` (centres unmarked) [Compound G-2]: the pKa value result is reported as “more than 12”.

With `CCCCCCCCOc1ccc(NS(=O)(=O)c2cc(C(C)(C)CC(C)(C)C)ccc2OCCCCCCCC)cc1S(=O)(=O)NCC(C)c1n[nH]c2cc(CC)nn12` (centres unmarked) [Compound G-9], the pKa value result is recorded as “more than 12”.

In the case of `CCCCCCCCOc1ccc(C(C)(C)CC(C)(C)C)cc1S(=O)(=O)Nc1ccc(OCCOC)c(S(=O)(=O)NC(C)(C)c2n[nH]c3c(Cl)c(C(C)(C)C)nn23)c1` [Compound G-5], the pKa value result is reported as “more than 12”.

Turning to `CCCCCCCCOc1ccc(NS(=O)(=O)c2cc(C(C)(C)CC(C)(C)C)ccc2OCCOc2ccc(C)cc2)cc1S(=O)(=O)NC(C)c1n[nH]c2cc(C(C)(C)C)nn12` (centres unmarked) [Compound G-4], the pKa value result was “more than 12”.

Regarding `CCCCCCCCOc1ccc(NS(=O)(=O)c2cc(C(C)(C)CC(C)(C)C)ccc2OCCCCCCCC)cc1S(=O)(=O)NCC(C)c1n[nH]c2c(Cl)c(C(C)(C)C)nn12` (centres unmarked) [Compound G-6], the pKa value result was “more than 12”.

With `CCCCCCCCOc1ccc(C(C)(C)CC(C)(C)C)cc1S(=O)(=O)Nc1cc(S(=O)(=O)Nc2c(C)cc(C)c(-c3n[nH]c4cc(CC)nn34)c2C)ccc1Cl` [Compound G-3], the pKa value entry is reported as “more than 12”.

`CCCCCCCCCCCCC(Oc1ccc(NS(=O)(=O)c2ccc(S(N)(=O)=O)cc2)cc1)c1n[nH]c2c(Cl)c(C)nn12` (centres unmarked) [Compound G-7]: the pKa value entry is “more than 12”.

Take `CCCCCCCCCCCCCCCCCCOc1ccc(C(C)(C)C)cc1S(=O)(=O)NC(C)c1n[nH]c2cc(C(C)(C)C)nn12` (centres unmarked) [Compound G-1]: the pKa value result is on record as “more than 12”.
